The text below walks through data of US7964598B2 (The J. David Gladstone Institutes, priority 1995, dated 2011).

Values joined by “and” are separate entries in the source; they are usually repeats but may differ in a detail not shown here. Equal entries are not always repeated. “Also recorded” adds a separate entry of the source.

Series [1] concerns B103 cells. Kind of series: Toxicity to B103 cells. It counts as cell-based, rat. The settings on record: at the micromole level.
Series [2] deals with T1, apoE3 (Homo sapiens, UniProt P02649).
T1 construct: made in house
The series is described as follows: Emulsion binding assay, apoE3. The procedure: (§1) Preparation of emulsion particles. Triolein (160 mg) and L-alpha-Phosphatidylcholine (40 mg) are combined and dried under nitrogen. After the addition of 8 mls of buffer (10 mM Tris, 100 mM KCl, 1 mM EDTA, pH 8.0), the mixture is sonicated in a water bath to obtain a heterogeneous mix of emulsion particles. The particles are harvested by ultracentrifugation (TLA 100.2 rotor, 30,000 rpm for 30 minutes) and the subsequent lipid cake is removed by tube slicing and resuspended in 100 μt 20 mM Phosphate Buffer (PB). Triolein and phospholipid content are measured and total emulsion particle concentration is determined.
(§2) Radiolabelling Freshly denatured and renatured Apolipoprotein E3 and E4 are radiolabelled using Bolton-Hunter Reagent [^125I] (ICN). Specific Activity is determined using Lowry method and Gamma 8000 counter.
(§3) Binding Affinity Assay. […] In glass tubes, 25 μg of protein (with iodinated tracer) was reduced with 1% β-mercaptoethanol. Two hundred and fifty μg of emulsion particles and 2.5 μl of compound (10 mM stock) were added and the final mixture was brought up to 250 μl with 20 mM phosphate buffer (PB). The reaction mixture was then incubated in a 37° C. water bath for 2 hours before being transferred to 1.5 ml ultracentrifuge tubes. Finally, 50 μl of 60% sucrose was mixed with the sample and 400 μl 20 mM PB was carefully layered on top. Using a TLA 100.2 rotor, the tube was spun at 30,000 rpm for 30 minutes and subsequently cut to separate the floating emulsion particle layer from the free protein at the bottom of the tube. These fractions were then combined with the respective half of the actual tube and counted using a Gamma-8000. […] Protein-only assays yielded 94.5-96.6% of protein accumulated in the bottom portion of the tube. In emulsion particle-only assays, 94% of emulsion particles accumulated in the top portion of the tube.
(§4) Preparation of Emulsion Particles and VLDL Binding Affinity Assay. VLDL-like emulsion particles were prepared using triolein (160 mg) and L-alpha-phosphatidylcholine (40 mg), as described. Dong and Weisgraber (1996) supra; and Dong et al. (1994) J. Biol. Chem. 269:22358-22365.

The target of series [3] is T2, apoE4 (Homo sapiens, UniProt P02649, C130R).
T2 construct: made in house
Kind of series: Emulsion binding assay for domain interaction, apoE4. The procedure:
as §1, §2, §3, §4

The mark [4] stands for this setting: follow-up assay, second E4 control.
Setting [5] is: initial assay, 2.5 μl of compound (10 mM stock) in 250 μl, 37° C. 2 hours.

T2 sequence (P02649 19-317 C130R): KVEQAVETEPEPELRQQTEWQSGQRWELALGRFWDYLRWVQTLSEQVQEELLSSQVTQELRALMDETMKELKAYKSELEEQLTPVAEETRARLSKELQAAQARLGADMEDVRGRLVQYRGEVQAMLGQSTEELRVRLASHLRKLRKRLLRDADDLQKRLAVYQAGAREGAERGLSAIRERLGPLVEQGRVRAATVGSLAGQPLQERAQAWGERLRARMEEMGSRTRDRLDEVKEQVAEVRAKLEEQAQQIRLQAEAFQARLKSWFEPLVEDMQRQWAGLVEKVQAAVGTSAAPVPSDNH
T1 sequence (P02649 19-317): as the sequence (P02649 19-317 C130R) above, with R112C counted along it

As for `O=S(=O)([O-])c1ccc2c(c1)c(Nc1ccc(S(=O)(=O)O)cc1)cc1c2nc2ccccc2[n+]1-c1ccccc1` [GIND-25, azocarmine-G], the “toxicity to B103 cells” value in series [1] is “no significant toxicity”. In series [2], the “binding of apoE3 to the emulsion particles” value was “no significant effect”. Besides, in series [2] (follow-up assay), the “E3 + compound, % bound” value turned out to be 30% and the “E3 + compound, % free” value is on record as 70%. Also, the “apoE4 domain interaction / binding of apoE4 to VLDL-like emulsion particles” value in series [3] is on record as “capable of blocking apoE4 domain interaction; also recorded: inhibited significantly”. Also, in series [3] (follow-up assay), the “E4 + cpd n = 3, % bound” value came to 57% and the “E4 + cpd n = 3, % free” value worked out at 43%. Further, in series [3] (setting [4]), the “E4 control, % bound” value turned out to be 46% and the “E4 control, % free” value is given as 54%. Besides, in series [3] (setting [5]), the “E4 + cpd, % bound” value was 12% and 15%; the “E4 + cpd, % free” value was 88% and 85%.
